According to patent US10829778B2, “Plants having increased tolerance to herbicides” (BASF SE, priority 2013, dated 2020):

Legend:
[1] = test system: Arabidopsis wild-type control plants; assay: Arabidopsis germination/growth inhibition assay in 48-well plates; assay type: in vivo, Arabidopsis thaliana; conditions: plant growth IC50 relative to wildtype
Experimental: (§1) Tolerance to N-heterocyclyl-arylcarboxamides can also be assessed in Arabidopsis. In this case transgenic Arabidopsis thaliana plants are assayed for improved tolerance to N-heterocyclyl-arylcarboxamides in 48-well plates. Seeds are surface sterilized by stirring for 5 min in ethanol+water (70+30 by volume), rinsing one time with ethanol+water (70+30 by volume) and two times with a sterile, deionized water. The seeds are resuspended in 0.1% agar dissolved in water (w/v). Four to five seeds per well are plated on solid nutrient medium consisting of half-strength Murashige Skoog nutrient solution, pH 5.8 (Murashige and Skoog (1962) Physiologia Plantarum 15: 473-497). Compounds are dissolved in dimethylsulfoxid (DMSO) and added to the medium prior solidification (final DMSO concentration 0.1%). Multi well plates are incubated in a growth chamber at 22° C., 75% relative humidity and 110 μmol Phot*m-2*s-1 with 14:10 h light: dark photoperiod. Seven to ten days after seeding growth inhibition is evaluated by comparison to wild type plants. Tolerance factor is calculated by dividing the plant growth IC50 value of transgenic plants containing a HPPD and/or HST sequence by that of wildtype plants.

[2] = test system: transgenic Arabidopsis plants overexpressing HPPD (Seq ID: 53); assay: as above; assay type: in vivo, Arabidopsis thaliana; conditions: plant growth IC50 of transgenic divided by wildtype; HPPD (Seq ID: 53) overexpression
Experimental: as §1

[3] = molecular target: T1, Arabidopsis HPPD (SEQ ID NO:53) (Arabidopsis thaliana, UniProt P93836); assay: HPPD activity assay (HGA by HPLC), wildtype enzyme; assay type: biochemical; conditions: Arabidopsis enzyme
T1 construct: His6 (N); made in house; host or cells: E. coli BL21 (DE3)
T1 sequence (P93836 1-445): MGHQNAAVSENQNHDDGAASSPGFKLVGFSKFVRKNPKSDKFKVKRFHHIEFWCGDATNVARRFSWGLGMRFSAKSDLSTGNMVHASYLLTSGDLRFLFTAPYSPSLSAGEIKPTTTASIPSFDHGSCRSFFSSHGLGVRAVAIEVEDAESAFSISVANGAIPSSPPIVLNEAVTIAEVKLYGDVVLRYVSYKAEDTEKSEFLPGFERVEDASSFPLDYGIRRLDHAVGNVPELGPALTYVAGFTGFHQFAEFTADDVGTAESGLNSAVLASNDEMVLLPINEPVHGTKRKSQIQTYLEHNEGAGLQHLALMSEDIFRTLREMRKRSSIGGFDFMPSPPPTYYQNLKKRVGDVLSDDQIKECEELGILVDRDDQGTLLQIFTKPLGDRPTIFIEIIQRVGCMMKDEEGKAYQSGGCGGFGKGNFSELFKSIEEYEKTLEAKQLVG
Experimental: (§2) HPPD produces homogentisic acid and CO2 from 4-hydroxyphenylpyruvate (4-HPP) and O2. The activity assay for HPPD is based on the analysis of homogentisic acid by reversed phase HPLC.
(§3) The assay mixture can contain 150 mM potassium phosphate buffer pH 7.0, 50 mM L-ascorbic acid, 100 μM Catalase (Sigma-Aldrich), 1 μM FeSO4 and 0.2 units of purified HPPD enzyme in a total volume of 505 μl. 1 unit is defined as the amount of enzyme that is required to produce 1 nmol of HGA per minute at 20° C.
(§4) After a preincubation of 30 min the reaction is started by adding 4-HPP to a final concentration of 0.05 mM. The reaction is allowed to proceed for 45 min at room temperature. The reaction is stopped by the addition of 50 μl of 4.5 M phosphoric acid. The sample is filtered using a […] pore size PVDF filtration device.
(§5) 5 μl of the cleared sample is analyzed on an UPLC HSS T3 column (particle size 1.8 μm, dimensions 2.1×50 mm; Waters) by isocratic elution using 90% 20 mM NaH2PO4 pH 2.2, 10% methanol (v/v).
(§6) HGA is detected electrochemically at 750 mV (mode: DC; polarity: positive) and quantified by integrating peak areas (Empower software; Waters).
(§7) Inhibitors are dissolved in DMSO (dimethylsulfoxide) to a concentration of 0.5 mM. From this stock solution serial five-fold dilutions are prepared in DMSO, which are used in the assay. The respective inhibitor solution accounts for 1% of the assay volume. […] Activities are normalized by setting the uninhibited enzyme activity to 100%. IC50 values are calculated using non-linear regression.
(§8) Using methods which are described in the above examples or well known in the art, purified, recombinant wildtype HPPD enzymes are characterized with respect to their kinetic properties and sensitivity towards HPPD inhibiting herbicides. Apparent michaelis constants (Km) and maximal reaction velocities (Vmax) are calculated by non-linear regression with the software GraphPad Prism 5 (GraphPad Software, La Jolla, USA) using a substrate inhibition model. […] Weighted means (by standard error) of Km and IC50 values are calculated from at least three independent experiments.
(§9) Field performance of the HPPD enzyme, which is used as a herbicide tolerance trait may depend not only on its lack of sensitivity towards HPPD inhibiting herbicides but also on its activity. To assess the potential performance of a herbicide tolerance trait a tolerance index (TI) is calculated using the following formula: […]
(§10) Easy comparison and ranking of each trait is enabled by normalizing tolerance indexes on Arabidopsis wild-type HPPD.

[4] = molecular target: T2, Hordeum HPPD (SEQ ID NO:2) (Hordeum vulgare, UniProt O48604, A164G/R146V/R147D/R148G); assay: HPPD activity assay (HGA by HPLC), wildtype enzyme; assay type: biochemical; conditions: Hordeum enzyme
T2 construct: subcloned into a modified pET24D (Novagen) expression vector resulting in N-terminally His-tagged expression constructs; His tag (N); made in house; host or cells: E. coli BL21 (DE3)
T2 sequence (O48604 whole entry R146V/R147D/R148G/A164G): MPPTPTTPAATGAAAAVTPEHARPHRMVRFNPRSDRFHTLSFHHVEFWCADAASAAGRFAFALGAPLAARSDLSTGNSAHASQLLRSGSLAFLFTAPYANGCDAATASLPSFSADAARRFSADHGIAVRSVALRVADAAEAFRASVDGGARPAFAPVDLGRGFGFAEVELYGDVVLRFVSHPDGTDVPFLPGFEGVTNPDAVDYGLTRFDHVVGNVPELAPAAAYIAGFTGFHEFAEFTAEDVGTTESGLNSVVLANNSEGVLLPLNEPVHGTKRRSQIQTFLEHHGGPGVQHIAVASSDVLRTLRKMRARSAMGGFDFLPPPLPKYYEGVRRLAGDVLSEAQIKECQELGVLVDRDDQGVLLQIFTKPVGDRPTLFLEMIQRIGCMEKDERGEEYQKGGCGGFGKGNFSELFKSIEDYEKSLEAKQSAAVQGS
Experimental: as §2, §3, §4, §5, §6, §7, §8, §9, §10

[5] = apparent michaelis constant, read-out: Km [μM] (4-HPP)

Row | Compound | Tolerance factor towards Inhibitor 2 [1] | Tolerance factor towards Inhibitor 2 [2] | Km [3, 5] | kcat ([3]; turnover number) | Km [4, 5] | kcat ([4]; turnover number)
1 | COc1nonc1NC(=O)c1ccc(S(C)(=O)=O)c(S(C)(=O)=O)c1C [Inhibitor 2, N-(4-methoxy-1,2,5-oxadiazol-3-yl)-2-methyl-3,4-bis(methylsulfonyl)benzamide] | 1 | 12 |  |  |  | 
2 | O=C(O)C(=O)Cc1ccc(O)cc1 [Inhibitor 4-HPP, 4-hydroxyphenylpyruvate, reference compound] |  |  | 13 µM | 12.9 s⁻¹ | 26 µM | 11.5 s⁻¹
